Calls of active or inactive are those of the source. The rule behind the calls is not given here. Starred links: 1 amine or outer side, 2 acyl side, 3 side chain; linkers in the order of their positions; H or OH if unused. Positions of bridges follow the written chain, without caps; N, C: chain ends. Non-standard residues stand in square brackets, D forms with d. Residues, ends and D or L forms follow the SMILES beside them. ξ: configuration not given here. mXylylene = c1cc(C[*:1])cc(C[*:2])c1; ξhCys = NC(CCS)C(=O)O
Columns and labels:
[1] = biological target: Envelope glycoprotein gp160 (Human immunodeficiency virus 1) (UniProt Q6QLK5); test: Binding affinity to HIV1 GP41 using GP41 NHR derived N36 peptide assessed as formation of oligomeric complex at 100 uM incubated for 30 mins by Coomassie blue R250 staining based Native-PAGE analysis
[2] = tested on: Human immunodeficiency virus 1; test: (§1) Synergistic antiviral activity against HIV1 NL4-3 infected in human MT2 cells or CEMx174 5.25 M7 cells assessed as reduction in p24 Gag protein production by measuring combination index at 10:1 compound to HP23 ratio measured at 4 days post-infection by ELISA; format: functional
[3] = tested on: Human immunodeficiency virus 1; test: Antiviral activity against X4 tropic HIV-1 subtype-B 3B infected in human MT2 cells or CEMx174 5.25 M7 cells assessed as reduction in p24 Gag protein production at 6:1 compound to HP23 ratio measured at 4 days post-infection by ELISA; format: functional, cell-based, HIV-1 group M; details: Human immunodeficiency virus 1, 3B, 96 h
[4] = biological target: Envelope glycoprotein gp160 (Human immunodeficiency virus 1) (UniProt Q6QLK5); test: Binding affinity to HIV1 GP41 using GP41 NHR derived N36 peptide at 500 uM incubated for 30 mins by size exclusion HPLC analysis
[5] = tested on: Human immunodeficiency virus 1; test: Antiviral activity against HIV1 NL4-3 infected in human MT2 cells or CEMx174 5.25 M7 cells assessed as reduction in p24 Gag protein production at 10:1 compound to HP23 ratio measured at 4 days post-infection by ELISA; format: functional, organism-based; details: Human immunodeficiency virus 1, NL4-3, 96 h
[6] = Cytotoxicity against human TZM-bl cells assessed as reduction in viability after 2 days by XTT assay; format: cell-based
[7] = tested on: Human immunodeficiency virus 1; test: Synergistic antiviral activity against X4 tropic HIV-1 subtype-B 3B infected in human MT2 cells or CEMx174 5.25 M7 cells assessed as reduction in p24 Gag protein production by measuring combination index at 24:1 compound to HP23 ratio measured at 4 days post-infection by ELISA; format: functional, HIV-1 group M
[8] = tested on: Human immunodeficiency virus 1; test: as §1, with “against T20 resistant” for “against”, “NL4-3 harboring with V38E/N42S mutant” for “NL4-3”, “7000:1” for “10:1”; format: functional
[9] = tested on: Human immunodeficiency virus 1; test: Synergistic antiviral activity against X4 tropic HIV-1 subtype-B 3B infected in human MT2 cells or CEMx174 5.25 M7 cells assessed as reduction in p24 Gag protein production by measuring combination index at 12:1 compound to HP23 ratio measured at 4 days post-infection by ELISA; format: functional, HIV-1 group M
[10] = tested on: Human immunodeficiency virus 1; test: Antiviral activity against R5 tropic HIV-1 subtype-B Bal infected in human MT2 cells or CEMx174 5.25 M7 cells assessed as reduction in p24 Gag protein production at 3:1 ratio of compound to HP23 measured at 4 days post-infection by ELISA; format: functional, cell-based, HIV-1 group M; details: Human immunodeficiency virus 1, Bal, 96 h
[11] = tested on: Human immunodeficiency virus 1; test: Antiviral activity against R5 tropic HIV-1 subtype-B Bal infected in human MT2 cells or CEMx174 5.25 M7 cells assessed as reduction in p24 Gag protein production at 12:1 ratio of compound to HP23 measured at 4 days post-infection by ELISA; format: functional, cell-based, HIV-1 group M; details: Human immunodeficiency virus 1, Bal, 96 h
[12] = tested on: Human immunodeficiency virus 1; test: Ratio of EC50 for antiviral activity against T20 resistant HIV1 NL4-3 harboring with V38E/N42S mutant infected in human MT2 cells or CEMx174 5.25 M7 cells in absence of HP23 to EC50 for antiviral activity against T20 resistant HIV1 NL4-3 harboring with V38E/N42S mutant infected in human MT2 cells or CEMx174 5.25 M7 cells at 3500:1 compound to HP23 ratio; format: functional
[13] = tested on: Human immunodeficiency virus 1; test: as §1, with “against T20 resistant” for “against”, “NL4-3 harboring with V38E/N42T mutant” for “NL4-3”, “300:1” for “10:1”; format: functional
[14] = tested on: Human immunodeficiency virus 1; test: (§2) Ratio of EC50 for antiviral activity against R5 tropic HIV-1 subtype-B Bal infected in human MT2 cells or CEMx174 5.25 M7 cells in absence of HP23 to EC50 for antiviral activity against R5 tropic HIV-1 subtype-B Bal infected in human MT2 cells or CEMx174 5.25 M7 cells at 12:1 compound to HP23 ratio; format: functional, HIV-1 group M
[15] = tested on: Human immunodeficiency virus 1; test: Ratio of EC50 for antiviral activity against T20 resistant HIV1 NL4-3 harboring with V38E/N42T mutant infected in human MT2 cells or CEMx174 5.25 M7 cells in absence of HP23 to EC50 for Antiviral activity against T20 resistant HIV1 NL4-3 harboring with V38E/N42T mutant infected in human MT2 cells or CEMx174 5.25 M7 cells at 300:1 compound to HP23 ratio; format: functional
[16] = tested on: Human immunodeficiency virus 1; test: Antiviral activity against T2635 resistant HIV1 LAI harboring Q66R mutant infected in human MT2 cells or CEMx174 5.25 M7 cells assessed as reduction in p24 Gag protein production at 12.5:1 ratio of compound to HP23 measured at 4 days post infection by ELISA; format: functional, organism-based, M:B_Lai
[17] = tested on: Human immunodeficiency virus 1; test: Antiviral activity against R5 tropic HIV-1 subtype-B Bal infected in human MT2 cells or CEMx174 5.25 M7 cells assessed as reduction in p24 Gag protein production at 6:1 ratio of compound to HP23 measured at 4 days post-infection by ELISA; format: functional, cell-based, HIV-1 group M; details: Human immunodeficiency virus 1, Bal, 96 h
[18] = biological target: Envelope glycoprotein gp160 (Human immunodeficiency virus 1) (UniProt Q6QLK5); test: Synergistic inhibition of HIV1 gp41-induced cell-cell fusion between viral envelope expressing human HL2/3 cells to CD4/CCR5 receptor expressing TZM-bl cells assessed as combination index at 1:1 compound to HP23 ratio incubated for 6 hrs by luciferase reporter gene assay
[19] = tested on: Human immunodeficiency virus 1; test: Synergistic antiviral activity against X4 tropic HIV-1 subtype-B 3B infected in human MT2 cells or CEMx174 5.25 M7 cells assessed as reduction in p24 Gag protein production by measuring combination index at 6:1 compound to HP23 ratio measured at 4 days post-infection by ELISA; format: functional, HIV-1 group M
[20] = tested on: Human immunodeficiency virus 1; test: Antiviral activity against T20 resistant HIV1 NL4-3 harboring with V38E/N42T mutant infected in human MT2 cells or CEMx174 5.25 M7 cells assessed as reduction in p24 Gag protein production at 600:1 hCS6ERE to compound ratio measured at 4 days post-infection by ELISA; format: functional, organism-based
[21] = biological target: Envelope glycoprotein gp160 (Human immunodeficiency virus 1) (UniProt Q6QLK5); test: Ratio of EC50 for inhibition of HIV1 gp41-induced cell-cell fusion between viral envelope expressing human HL2/3 cells to CD4/CCR5 receptor expressing TZM-bl cells in absence of HP23 to EC50 for inhibition of HIV1 gp41-induced cell-cell fusion between viral envelope expressing human HL2/3 cells to CD4/CCR5 receptor expressing TZM-bl cells at 1:1 ratio of hCS6ERE to compound
[22] = tested on: Human immunodeficiency virus 1; test: Ratio of EC50 for antiviral activity against T2635 resistant HIV1 LAI harboring Q66R mutant infected in human MT2 cells or CEMx174 5.25 M7 cells in absence of hCS6ERE to antiviral activity against T2635 resistant HIV1 LAI harboring Q66R mutant infected in human MT2 cells or CEMx174 5.25 M7 cells at 50:1 ratio of hCS6ERE to compound; format: functional, M:B_Lai
[23] = tested on: Human immunodeficiency virus 1; test: as §2, with “hCS6ERE” for “HP23”, “12:1 ratio of hCS6ERE to” for “12:1”, “compound” for “compound to HP23 ratio”; format: functional, HIV-1 group M
[24] = tested on: Human immunodeficiency virus 1; test: Antiviral activity against T20 resistant HIV1 NL4-3 harboring with V38E/N42T mutant infected in human MT2 cells or CEMx174 5.25 M7 cells assessed as reduction in p24 Gag protein production at 300:1 hCS6ERE to compound ratio measured at 4 days post-infection by ELISA; format: functional, organism-based

Envelope glycoprotein gp160 (Human immunodeficiency virus 1), sequence (Q6QLK5 1-814): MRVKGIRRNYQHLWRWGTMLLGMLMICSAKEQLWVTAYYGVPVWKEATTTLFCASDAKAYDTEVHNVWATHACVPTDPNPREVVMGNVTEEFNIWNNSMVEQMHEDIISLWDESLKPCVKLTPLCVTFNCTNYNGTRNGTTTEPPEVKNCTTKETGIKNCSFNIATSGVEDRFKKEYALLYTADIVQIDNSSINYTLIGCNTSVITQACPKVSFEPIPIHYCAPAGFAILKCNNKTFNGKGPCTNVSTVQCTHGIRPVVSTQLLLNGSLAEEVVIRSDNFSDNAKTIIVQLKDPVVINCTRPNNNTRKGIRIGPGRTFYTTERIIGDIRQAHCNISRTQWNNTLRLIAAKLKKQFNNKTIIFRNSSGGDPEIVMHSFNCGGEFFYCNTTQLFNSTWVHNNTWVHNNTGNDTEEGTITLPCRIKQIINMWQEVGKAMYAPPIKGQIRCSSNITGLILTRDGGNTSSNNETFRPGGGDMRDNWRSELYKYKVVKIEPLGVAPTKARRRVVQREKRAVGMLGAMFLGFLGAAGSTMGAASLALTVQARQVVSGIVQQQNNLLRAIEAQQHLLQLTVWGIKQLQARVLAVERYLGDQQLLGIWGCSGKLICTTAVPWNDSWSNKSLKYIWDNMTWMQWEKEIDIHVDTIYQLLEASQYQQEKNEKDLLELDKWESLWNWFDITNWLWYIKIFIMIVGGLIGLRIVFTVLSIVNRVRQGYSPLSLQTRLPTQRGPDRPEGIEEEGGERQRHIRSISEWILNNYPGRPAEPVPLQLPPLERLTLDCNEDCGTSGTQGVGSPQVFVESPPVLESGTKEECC

CC[C@H](C)[C@H](NC(C)=O)C(=O)N[C@@H](CCC(=O)O)C(=O)N[C@@H](CCC(=O)O)C(=O)N[C@@H](CC(C)C)C(=O)N[C@H](C(=O)NC1CCSCc2cccc(c2)CSCCC(C(=O)N[C@@H](CCC(N)=O)C(=O)N[C@@H](CCC(N)=O)C(=O)N[C@@H](CCCNC(=N)N)C(=O)N[C@@H](CCCCN)C(=O)N[C@@H](CC(N)=O)C(=O)N[C@@H](CCC(=O)O)C(=O)N[C@@H](CCC(=O)O)C(=O)N[C@@H](C)C(=O)N[C@@H](CC(C)C)C(=O)N[C@@H](CCCNC(=N)N)C(=O)N[C@@H](CCC(=O)O)C(=O)N[C@@H](CC(C)C)C(N)=O)NC(=O)[C@H](CCC(N)=O)NC(=O)[C@H](C)NC(=O)[C@H](C)NC1=O)[C@@H](C)CC (some centres undefined) (Ac-IEELI[ξhCys]AAQ[ξhCys]QQRKNEEALREL-NH2; linker 6-10 via mXylylene)
Activity [1]: Active
CI [2]: 0.7
EC50 [3]: 7.6 nM
Activity [4]: Active
EC50 [5]: 9 nM
CC50 at 48 h [6]: > 800 µM
CI [7]: 0.9
CI [8]: 0.6
CI [9]: 0.7
EC50 [10]: 4.1 nM
EC50 [11]: 6 nM
Ratio EC50 [12]: 3.4
CI [13]: 0.8
Ratio EC50 [14]: 2.6
Ratio EC50 [15]: 2.3
EC50 [16]: 22.9 nM
EC50 [17]: 6 nM
CI [18]: 0.9
CI [19]: 0.8

H-EMTWEEWEKKIEEYTKKIEEILK-OH
EC50 [20]: 0.8 nM
Ratio EC50 [21]: 1
Ratio EC50 [22]: 9.6
Ratio EC50 [23]: 2.6
EC50 [24]: 1.4 nM
